Measurements from ChEMBL document CHEMBL1150067, “Anti-tumor-promoting activities of afromosin and soyasaponin I isolated from Wistaria brachybotrys” (1992).

What was measured:
Format in all cases: functional
Mus musculus [1] = organism: Mus musculus; assay: Inhibition of 4NQO-induced carcinogenesis in mouse assessed as reduction of mouse with tumor at 1.25 mg after 25 weeks by two stage carcinogenesis test; parameters: scale not given: the % may be the effect or the level left
Mus musculus [2] = assay: Inhibition of DMBA-induced/TPA-promoted carcinogenesis in mouse assessed as number of skin papillomas per mouse at 85 nmol administered twice weekly after 1 week of initiation measured after 20 weeks by two stage carcinogenesis test; parameters: scale not given: the % may be the effect or the level left
Mus musculus [3] = organism: Mus musculus; assay: Inhibition of 4NQO-induced carcinogenesis in mouse assessed as number of tumors per mouse at 1.25 mg after 25 weeks by two stage carcinogenesis test
Mus musculus [4] = organism: Mus musculus; assay: Inhibition of 4NQO-induced carcinogenesis in mouse assessed as total number of tumors at 1.25 mg after 25 weeks by two stage carcinogenesis test

Row | Compound | Activity (Mus musculus [1]) [%] | Activity (Mus musculus [2]) [%] | Activity (Mus musculus [3]) | Activity (Mus musculus [4])
1 | COc1ccc(-c2coc3cc(O)c(OC)cc3c2=O)cc1 [CASTANIN] | 60 | 40 | 0.93 | 14
2 | C[C@@H]1O[C@@H](O[C@H]2[C@H](O[C@H]3[C@H](O[C@H]4CC[C@@]5(C)[C@@H](CC[C@]6(C)[C@@H]5CC=C5[C@@H]7CC(C)(C)C[C@@H](O)[C@]7(C)CC[C@]56C)[C@@]4(C)CO)O[C@H](C(=O)O)[C@@H](O)[C@@H]3O)O[C@H](CO)[C@H](O)[C@@H]2O)[C@H](O)[C@H](O)[C@H]1O [SOYASAPONIN I] | – | 40 | – | –
